US20150150842A1, “DESETHYLAMIODARONE COMPOSITIONS” (priority 2012, published 2015)
“And” between values parts separate entries of the source, which are not always exact repeats. Identical values can stand only once.

Legend:
isolated rabbit heart = assay: Atrial fibrillation induced by rapid atrial pacing with carbachol in isolated (Langendorff) rabbit heart; parameters: species or system New Zealand white rabbits
Experimental: Hearts from New Zealand white rabbits (1-2 kg) were used in the experiments. Animals were treated with an intravenous injection of 400 IU/kg heparin and anaesthetized by intravenous infusion of 30 mg/kg pentobarbital and sacrificed by cervical dislocation. The protocols were approved by the Department of Animal Health and Food Control of the Ministry of Agriculture and Rural Development, Hungary (XIII/01031/000/2008) and by the Ethical Committee for the Protection of Animals in Research of the University of Szeged, Szeged, Hungary (approval number I-74-125-2007). After median thoracotomy the heart was quickly removed and placed into cold (4° C.) Krebs-Henseleit solution (KHS) containing (in mM): NaCl 118, KCl 4.3, KH2PO4 1.2, MgSO4 1.2, Na pyruvate 5, NaHCO3 25, glucose 11, CaCl2 1.8, pH 7.4 when gassed with a mixture of 95% O2 and 5% CO2. The heart was then mounted on a modified Langendorff apparatus and perfused retrogradely through the aorta with oxygenated KHS warmed to 37° C. The pulmonary vein was also cannulated in order to perfuse the left atrial chamber. In order to record the optical monophasic action potentials the hearts were also loaded with the voltage sensitive fluorescent dye di-4 Anneps for 5 min. To stop the cardiac contractions and avoid motion artefacts during the optical image acquisition the electrical and mechanical activity of the heart was uncoupled by adding 11 mM 2,3-butanedione monoxime to the perfusate.
Epicardial electrograms from the left atrial and left ventricular wall were amplified with a surface electrode amplifier (Experimetria, Hungary) and monitored using a high frequency oscilloscope (Leader Electronics Corporation, Korea). […] The high resolution optical action potential mapping system consisted of a light-emitting diode (LED) lamp as an excitation light source at a wavelength of 527 nm and a high-resolution, high-speed metal-oxide-semiconductor (CMOS) camera (MiCam02, type MCO2C4) equipped with an 580 nm long pass filter for acquiring the fluorescence images from the surface of the heart at a frequency of 833 Hz. Fluorescence images were analyzed using the Brainvison Analyze software (Brainvision Inc Tokyo, Japan).
After allowing the hearts to stabilize for 15 min, acute episodes of atrial fibrillation were induced with rapid electrical stimulation of the atria at a rate of 50 Hz for 10 sec in the presence of 1 μM carbachol in the perfusate. […] All data are expressed as mean±SEM.
All chemicals were purchased from Sigma-Aldrich (St. Louis, Mo., USA), except DEA and di-4 Anneps. Di-4 Anneps was purchased from Molecular Probes Inc. (Eugene, Oreg., USA). […]

conscious rats = tested on: conscious rats
Experimental: The present experiments were performed on male, Sprague-Dawley CFY rats weighing 260-300 g. During a preliminary open-chest surgery we applied a loose silk loop around the left main coronary artery, and then the chest was closed (Leprán et al., 1983). Seven-eight days after the preliminary surgery—after complete recovery and healing—the loose silk loop was tightened to occlude the coronary artery in conscious, freely moving animals. During the first 15 min of myocardial infarction a bipolar ECG was recorded continuously (PowerLab 8SP, ADInstruments, Great Britain).
We followed the survival rate during the acute phase (first 15 min) and during the subsequent 16 hours after coronary artery occlusion. The incidence and duration of arrhythmias in the acute phase were evaluated according to the Lambeth Conventions (Walker et al., 1988), i.e. ventricular fibrillation, ventricular tachycardia, and other types of arrhythmias, including ventricular extrasystoles, bigeminy, and salvos. The size of myocardial infarction was measured in the animals surviving for 16 hours after coronary artery occlusion using nitrotetrazolium-blue dye staining.
Long-term oral pretreatment was applied for 1 month before the coronary artery occlusion. […] Control animals were given the vehicle in a volume of 5 ml/kg.

[1] = tested on: conscious dogs with structural atrial remodelling; assay: Chronic rapid atrial pacing induced atrial remodelling and burst-induced atrial fibrillation in conscious dogs
Experimental: The experiments were performed on chronically instrumented Beagle dogs of both sexes, weighing 12-13 kg. The animals were subjected to the following surgery under general anaesthesia: pacemakers were implanted into bilateral subcutaneous pockets in the neck area (Logos, Karios; Biotronik Hungaria Ltd.) and were attached to pacemaker electrodes implanted into the right ventricle and right atrium. Radiofrequency catheter ablation was performed in each animal to achieve third degree atrioventricular (AV) block so that during subsequent rapid atrial pacing (400/min) the ventricles are protected from high heart rates. […] On the seventh day after surgery, following the measurement of right atrial effective refractory period the atrial pacemaker was set to a frequency of 400/min to achieve atrial electrical and structural remodelling. Right atrial rapid pacing is necessary to maintain for 3 months in this model to obtain complete remodeling of the atria signalled by the reduction of right atrial effective refractory period below 80 ms.
The body weight of animals was monitored for strict adherence to the desired dose.
The right atrial effective refractory period (ERP) was measured using the S1 -S2 protocol at cycle lengths of 150 and 300 ms. In addition ERP monitoring, 10-second long burst stimuli were applied at 800/min frequency to induce atrial fibrillation and the incidence of AF, the duration of AF episodes were measured before commencement of oral drug therapy and then after the initiation of therapy every 4 days.

[2] = tested on: dog atrial and ventricular tissue; assay: Atrial and ventricular action potential parameters after chronic oral treatment of non-instrumented dogs; assay type: in vivo, Beagle dogs; settings: 500 ms cycle length, 4-week oral DEA 30 or AMIO 45 mg/kg/day
dogs = settings: 4 weeks oral AMIO 45 mg/kg (from 243.2 ms, SE=9.7 after) or DEA 30 mg/kg (from 243.6 ms, SE=7.3 after)
[3] = tested on: cardiac thyroid receptors; settings: reported earlier (van Beeren et al, 1995; Latham et al, 1987); cited from earlier work
rats = assay: Chronic 28-day non-GLP toxicology in rats

Question: Which “Occurrence of atrial fibrillation, After treatment (number of hearts)” value (isolated rabbit heart; 1 μM carbachol, 50 Hz pacing 10 sec, DEA 5 μM, before treatment 5 of 5 hearts) does the source give for `CCCCc1oc2ccccc2c1C(=O)c1cc(I)c(OCCNCC)c(I)c1` [DEA, (2-Butylbenzofuran-3-yl)-[4-(2-ethylaminoethoxy)-3,5-diiodophenyl]methanone] here?
Answer: 0 of 5 and 0

Question: What about the “Occurrence of atrial fibrillation after treatment, %” value (isolated rabbit heart; 1 μM carbachol, DEA 5 μM, Control 77) of the same compound?
Answer: 0%

Question: And the “Average duration of atrial fibrillation episodes, After treatment” value (isolated rabbit heart; 1 μM carbachol, DEA 5 μM, mean±SEM, before treatment 110.2 ± 37.1)?
Answer: 0 ± 0

Question: And the “Occurrence of atrial fibrillation” value (isolated rabbit heart; second trial)?
Answer: completely prevented the occurrence of atrial fibrillation

Question: And the “Death due to the 1 month treatment” value (conscious rats; 1 month oral pretreatment)?
Answer: No death occurred

Question: And the “Survival rate during the acute phase of experimental myocardial infarction” value (conscious rats; 1 month oral pretreatment)?
Answer: significantly improved

Question: What about the “Behavioral changes, body weight increments” value (conscious rats; 1 month oral pretreatment, AMIO 30 or 100, DEA 15 or 50 mg/kg/day) of the same compound?
Answer: Neither AMIO nor DEA produced any behavioral changes of the animals, or in body weight increments

Question: What about the Arrhythmia score (conscious rats; first 15 min after coronary artery occlusion, 1 month oral AMIO 100 or DEA 50 mg/kg/day, control 4.77±0.33) of the same compound?
Answer: 3.27±0.56

Question: What about the “Incidence of ventricular fibrillation” value (conscious rats; larger doses (AMIO 100, DEA 50 mg/kg/day), after coronary artery occlusion) of the same compound?
Answer: significantly decreased

Question: And the “AF duration (s), Following 4-week treatment, individual animals” value ([1]; oral DEA 25 mg/kg/day, Control (before) 1 122.6, 1 505.8, 6 739.1)?
Answer: 21.6 s and 44 s and 1.9 s

Question: What about the “Lg AF duration, Following 4-week treatment, individual animals” value ([1]; oral DEA 25 mg/kg/day, Control (before) 3.05, 3.17, 3.82) of the same compound?
Answer: 1.33 and 1.64 and 0.28

Question: What about the “ERP, Following 4-week treatment, individual animals” value ([1]; oral DEA 25 mg/kg/day, animals 2010/06, 2010/11, 2010/14, Control (before) <80 in all) of the same compound?
Answer: 80 ms (2×) and <80 ms

Question: What about the “Incidence of AF, Following 4-week treatment, individual animals” value ([1]; oral DEA 25 mg/kg/day, burst-induced AF, Control (before) 60%, 50%, 27%) of the same compound?
Answer: 10% (2×) and 27%

Question: And the “Lg AF duration, Following 4-week treatment, Mean ± SE” value ([1]; oral DEA 25 mg/kg/day, n=3, Control (before) 3.35 ± 0.24)?
Answer: 1.08 ± 0.41

Question: And the “Incidence of AF, Following 4-week treatment, Mean ± SE” value ([1]; oral DEA 25 mg/kg/day, n=3, Control (before) 45.7 ± 9.77)?
Answer: 15.7 ± 5.67%

Question: What about the “AF duration (s), Following 4-week treatment, Mean ± SE” value ([1]; oral DEA 25 mg/kg/day, n=3, Control (before) 3122 ± 1811.7) of the same compound?
Answer: 22.5 ± 12.16 s

Question: And the “Incidence and duration of atrial fibrillation” value ([1]; three animals, 4-week oral treatment, DEA 25, AMIO 50 mg/kg/day, accompanied by prolongation of the ERP)?
Answer: markedly and significantly decreased

Question: And the “Vmax (V/s), Dog atrium” value ([2]; n = 3, CONTROL 249.7 ± 52.7)?
Answer: 231.5 ± 45.4 V/s

Question: What about the “APD90 (ms), Dog atrium” value ([2]; n = 4, CONTROL 123.9 ± 9.6) of the same compound?
Answer: 156.6 ± 12.6 ms

Question: What about the “ECG QTc interval after treatment” value (dogs) of the same compound?
Answer: 266.9 ms

Question: And the “Affinity for cardiac thyroid receptors compared to AMIO” value [3]?
Answer: higher affinity

Question: And the “Detection of the administered drug 14 days after the completion of administration” value (rats; 28-day oral AMIO 200 mg/kg/day or DEA 100 mg/kg/day, plasma (DEA: plasma or cardiac tissue))?
Answer: not detected in plasma or cardiac tissue samples

Question: What about the “Elimination of DEA compared to AMIO” value (rats; 28-day oral study) of the same compound?
Answer: significantly faster
